From patent US11970454B1, “Ethyl-2[9-2(2-hydroxyquinolin-3-yl)-1,8-dioxo-3,4,9,10-tetrahydroacridine-10-yl]-acetate as an antimicrobial compound” (KING FAISAL UNIVERSITY, priority 2023, dated 2024)

Legend:
Pseudomonas aeruginosa = experiment: Antimicrobial screening by agar dilution, Pseudomonas aeruginosa; format: cell-based; conditions: after 10, 20, 40 and 60 minutes at all dilutions 1:100, 1:200, 1:400, 1:800
Description: (§1) The antibacterial properties of the synthesized compound ethyl 2-[9-(2-hydroxyquinolin-3-yl)-1,8-dioxo-3,4,9,10-tetrahydroacridine-10-yl]-acetate were studied by the method of agar dilution. Test solutions of each compound was prepared in concentration of 1% using dimethylformamide as a solvent then they are diluted in physiological solution to obtain the final experimental dilutions 1:100, 1:200, 1:400, 1:800. The effect of these substances are compared with furacillin in a controllable study. The testing microbes used were gram positive bacteria Staphylococcus aureus, gram negative bacteria Pseudomonas aeruginosa and Escherichia coli and Candida albicans fungus. The experiments used for this survey were meat-pentonlu agar (EPA) for cultivation of bacteria and Saburo environment for the fungus. Each experiment used 1 mL of test solution on each plate […]. Two drops of emulsified with microbes feel were added. All experimental samples were taken from the agar after 10, 20, 40, 60 minutes in the environment on the basis of Patrk planted. The bacteria were cultivated at a temperature of 37° C. for 1 day and the mushroom was kept in a thermostat for […] at a temperature of 28° C. Then results were checked.

Candida albicans = experiment: Antimicrobial (antifungal) screening by agar dilution, Candida albicans; format: cell-based; conditions: after 10, 20, 40 and 60 minutes at all dilutions 1:100, 1:200, 1:400, 1:800
Description: as §1

Escherichia coli = experiment: Antimicrobial screening by agar dilution, Escherichia coli; format: cell-based; conditions: after 10, 20, 40 and 60 minutes at all dilutions 1:100, 1:200, 1:400, 1:800
Description: as §1

Staphylococcus aureus = experiment: Antimicrobial screening by agar dilution, Staphylococcus aureus; format: cell-based; conditions: after 10, 20, 40 and 60 minutes at all dilutions 1:100, 1:200, 1:400, 1:800
Description: as §1

- melting point: 228 °C
Structure (SMILES): CCOC(=O)CN1C2=C(C(=O)CCC2)C(c2cc3ccccc3nc2O)C2=C1CCCC2=O [ethyl 2-[9-(2-hydroxyquinolin-3-yl)-1,8-dioxo-3,4,9,10-tetrahydroacridine-10-yl]-acetate]
- inhibition activity (Pseudomonas aeruginosa): highest inhibition activity
- inhibition activity (Candida albicans): highest inhibition activity
- inhibition activity (Escherichia coli): highest inhibition activity
- inhibition activity (Staphylococcus aureus): highest inhibition activity
